Measurements reported in paper PMC7617459, “Comparative Evaluation and Profiling of Chemical Tools for the Nuclear Hormone Receptor Family 2” (ACS pharmacology & translational science, 2025).
Where two headings read alike, the source gives them in different places.

Experiments:
[1] = test system: RXRβ; conditions: cited from earlier work
[2] = molecular target: T1, RXRα (Homo sapiens, UniProt P19793); experiment: Gal4-hybrid reporter gene assay RXRα
T1 sequence (P19793 227-458 limits assumed): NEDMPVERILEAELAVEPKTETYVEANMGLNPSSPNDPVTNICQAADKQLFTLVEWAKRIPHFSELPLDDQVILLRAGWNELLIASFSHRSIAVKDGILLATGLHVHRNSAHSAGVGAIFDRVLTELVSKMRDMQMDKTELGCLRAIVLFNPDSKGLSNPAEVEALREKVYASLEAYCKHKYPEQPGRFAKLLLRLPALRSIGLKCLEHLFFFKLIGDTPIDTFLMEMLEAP

[3] = test system: TLX; conditions: cited from earlier work
[4] = molecular target: TLX LBD; conditions: ITC; cited from earlier work
[5] = test system: COS-7 cells; experiment: Multiplex toxicity assay; type: cell-based; conditions: 24 h, at active concentration
Description: COS-7 cells (DSMZ #ACC 60) were cultured at 37°C and 5% CO2 in DMEM high glucose medium supplemented with sodium pyruvate (1 mM), penicillin (100 U/mL), streptomycin (100 µg/mL), and 10% fetal calf serum (FCS). After aspirating the wells, the cells were seeded at 1x10^5 cells per well in complete culture medium. […] Each sample was prepared in at least 4 biologically independent replicates. After incubation for 24 h, the wells were aspirated and incubated for 30 min with stimulation medium containing 1 µM NucView® 405 fluorogenic caspase-3 substrate (#10405, Biotium, Fremont, USA) and Live-or-Dye Nuc-Fix Red (0.05x, Biotium, Inc., Fremont, CA, 1691 USA) to detect apoptosis and necrosis, respectively. After incubation, a total of 6 fluorescence images per well at 10x magnification were taken to detect NucView®-positive (Ex: 381–400 nm, Em: 414–450 nm) and Live-or-Dye-positive cells (Ex: 543−566 nm, Em: 580−611 nm) using on a Tecan Spark Cyto (Tecan Group AG). Reference readings for background correction and detection of auto-fluorescence were taken at 414–450 nm prior to staining. Thereafter, wells were aspirated, the cells were incubated for 3 h with 90 µL culture medium (0.2% FCS) and 10 µL Cell Counting Kit-8 solution (CCK-8, MedChem Express #HY-K0301), and absorbance was measured at 1, 2, and 3h of incubation at 450 nm on a Tecan Spark Cyto to assess metabolic activity of the cells. Before drug administration, after the first medium exchange, 24 h after drug administration, and after fluorescence imaging cell confluence was assessed using the Tecan Spark Cyto, to account for changes in cell confluence due to drug administration and cell handling. The number of apoptotic cells, metabolic activity, and changes in cell confluence in response to drug treatment were all normalized to the vehicle control of each biological replicate individually.

[6] = molecular target: T2, TLX (Homo sapiens, UniProt Q9Y466); experiment: Gal4-hybrid reporter gene assay TLX; type: cell-based; conditions: selected test concentration (Figure 3)
T2 construct: encoding the hinge region and the LBD of the canonical isoform of the respective human nuclear receptors; expressed in transfected cells; host or cells: HEK293T

[7] = test system: nuclear receptors; experiment: Selectivity profiling in Gal4-hybrid reporter gene assay panel; type: cell-based, human; conditions: at active concentration
[8] = test system: adipocyte-derived stem cells (ASC); experiment: Adipogenesis assay (ASC differentiation, Oil Red O); type: cell-based; conditions: 18 days
Source text: Using the small collection of NR2 modulators with sufficient reproducible on-target activity and selectivity (6, 7, 9, 11, 12, 13, 19, 21, 22, 23, 25), we next explored their application as a chemogenomics set.[161] To probe the potential of the collection to link phenotypic effects and target in a complex cellular setting, we determined compound effects on the differentiation of adipocyte-derived stem cells (ASC). Under cyclic treatment with insulin, isobutylmethylxanthine, dexamethasone and the PPARγ agonist pioglitazone,[162] these cells develop into adipocytes and accumulate large amounts of fat. However, adipogenesis is orchestrated by many transcription factors[163] and could potentially involve a role of NR2 receptors. […] There was no uniform effect of RXR modulators on fat deposition in adipocytes, possibly due to diverse off-targets of 6 and 11. […] Among TLX ligands the agonist 19 increased the amount of fat and lipid particle size, pointing to enhanced adipogenesis. The inverse TLX agonist 21 had no effect. PNR ligand effects in the adipogenesis model were generally weak.
Differentiation experiments of ASC52telo, hTERT cells (ATCC® SCRC-4000™) were conducted according to a previously described procedure.[162] In brief, the cells were grown in DMEM high-glucose medium supplemented with 10% fetal calf serum, sodium pyruvate (1 mM), penicillin (100 U/mL), and streptomycin (100 μg/mL) at 37 °C and 5% CO2. The cells were seeded in standard culture medium at a density of 5x10^4 cells per well in 96-well plates. After adherence overnight, cells were incubated with differentiation medium, composed of standard culture medium supplemented with human insulin (10 µg/mL, #I3536, Merck KgaA, Darmstadt, Germany), dexamethasone (1 µM, #D4902, Merck KgaA, Darmstadt, Germany,), isobutylmethylxanthine (0.5 mM, #I5879, Merck KgaA, Darmstadt, Germany), DMSO (final concentration 0.1%) and the respective test compounds or pioglitazone at 1 µM. The cells were kept in a differentiation medium for 48-72 h followed by a 24 h incubation with standard culture medium supplemented with 10 µg/mL insulin only. This cycle was repeated five times accounting for a total differentiation time of 18 days. The indicated test compounds at 0.1% DMSO or 0.1% DMSO alone as vehicle control were supplemented freshly with every medium exchange. After the 18-day differentiation procedure and test compound treatment, the cells were washed with phosphate buffered saline (PBS) once and fixed with formalin (10%, stabilized with methanol, 100 µL per well, #15071, Morphisto GmbH, Offenbach am Main, Germany) for 15 min at room temperature. The fixing solution was aspirated, and the fixed cells were washed twice with 50% ethanol solution with the second wash step incubating for 15 min at room temperature to equilibrate the specimens for staining. Oil Red O (#O0625, Merck KgaA, Darmstadt, Germany) was prepared at 0.5% (w/v) in 50% ethanol (v/v) and 5% salicylic acid (w/v), filtered with grade 595 Whatman® filter paper (#311611, Schleicher & Schuell GmbH, London, U.K.) and a 0.2 µm syringe filter (FP 30/0,2 CA-S, #10462200, Schleicher & Schuell GmbH, London, U.K.). Upon equilibration, specimens were incubated with 100 µL of 0.5% Oil Red O solution for 45 min at room temperature before the staining solution was aspirated and the wells were washed once with 50% (v/v) ethanol solution and three times with ddH2O. Specimens were kept in ddH2O for subsequent analysis. For each well, two pictures were taken at a 4x magnification using a Motic®AE31E inverted microscope and a Moticam 1080 (Motic Hong Kong Ltd.). Images were corrected for skewed illumination, Oil Red O crystal precipitates were identified and removed, and the resulting processed pictures were dichromized to extract gray values from the red channel using CellProfiler (Version 4.2.6). […]

[9] = molecular target: T3, HNF4α (Homo sapiens, UniProt P41235); experiment: Gal4-hybrid reporter gene assay HNF4α; conditions: 30 µM, HEK293T
T3 sequence (P41235 147-377 limits assumed): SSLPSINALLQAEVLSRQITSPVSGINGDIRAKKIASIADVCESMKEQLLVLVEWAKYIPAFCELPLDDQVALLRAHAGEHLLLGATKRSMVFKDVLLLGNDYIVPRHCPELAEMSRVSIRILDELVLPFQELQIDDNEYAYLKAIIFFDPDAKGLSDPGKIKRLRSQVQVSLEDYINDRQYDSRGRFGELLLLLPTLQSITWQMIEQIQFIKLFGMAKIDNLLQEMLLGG

[10] = test system: human insulin promoter; conditions: insulin promoter assay; cited from earlier work
[11] = test system: RXRγ; conditions: cited from earlier work; for EC50: reporter gene assay
[12] = test system: TLX expression; conditions: cited from earlier work
[13] = test system: TLX-regulated genes; conditions: cited from earlier work
[14] = test system: full-length TLX; conditions: reporter gene assay; cited from earlier work
[15] = test system: TLX; conditions: read-out: EC50 TLX activation; cellular reporter gene assay; cited from earlier work
[16] = molecular target: TLX; conditions: cited from earlier work; remark: listed apart in the source
[17] = test system: RXRα; conditions: cited from earlier work; for EC50: reporter gene assay
[18] = test system: fructose-1,6-bisphosphatase 1 (FBP1); set-up: method as in PMID 33114319; conditions: HepG2 cells; cited from earlier work
[19] = reporter gene assays, read-out: IC50 (counteracting TLX repressor activity)
[20] = reporter gene assay, read-out: RXRβ cellular activity/potency
[21] = read-out: RXRγ cellular activity/potency

T2 sequence (Q9Y466 155-383 limits assumed): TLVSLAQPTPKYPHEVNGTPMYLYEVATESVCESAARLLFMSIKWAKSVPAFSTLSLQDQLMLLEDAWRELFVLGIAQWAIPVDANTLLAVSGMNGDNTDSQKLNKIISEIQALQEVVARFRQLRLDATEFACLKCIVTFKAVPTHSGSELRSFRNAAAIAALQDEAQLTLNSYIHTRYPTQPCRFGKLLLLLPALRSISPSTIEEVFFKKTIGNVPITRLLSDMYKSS

SMILES: CCCCCOc1cc2c(cc1-c1cc(/C=C/C(=O)O)ccc1O)C(C)(C)CCC2(C)C [compound 12]
- IC50 ([1]; reporter gene assay, no precise value reported, read-out: RXRb cellular activity/potency (antagonist)): ~50 nM
- effect on bexarotene-induced RXR activation ([2]; 1 µM, coincubation with bexarotene): robustly blocked

SMILES: Cn1c(=O)c2[nH]c(-c3ccccc3Cl)nc2n(C)c1=O [compound 20, 8-(2-chlorophenyl)-theophylline]
- IC50 [3, 19]: 500 nM
- Kd [4]: 800 nM

SMILES: Cn1c(=O)c2[nH]c(-c3ccccc3)nc2n(C)c1=O [compound 21, 8-Phenyl-theophylline]
- cytotoxicity [5]: non-toxic
- TLX modulation [6]: inverse agonism
- selectivity over other nuclear receptors [7]: selective over other nuclear receptors
- Oil red O positive area (amount of fat) [8]: no effect
- fat droplet (particle) size [8]: no effect

SMILES: CC(Cc1cccc(C(F)(F)F)c1)NCCOC(=O)c1ccccc1 (stereo not shown) [compound 2, benfluorex]
- effects on HNF4 activity [9]: no effects
- EC50 [10]: 24400 nM

SMILES: CCCCOc1cc(C(=O)Nc2cc(-n3cnc(C)c3)cc(C(F)(F)F)c2)c2ccccc2n1 [compound 19]
- cytotoxicity [5]: non-toxic
- TLX expression levels [12]: no effect
- TLX modulation [6]: TLX activation
- SIRT1 expression [13]: induced SIRT1 expression
- selectivity over other nuclear receptors [7]: selective over other nuclear receptors
- EC50 ([3]; read-out: Gal4-TLX EC50): 250 nM
- IC50 ([3]; reporter gene assay, read-out: IC50 (first value of cell)): 250 nM
- Oil red O positive area (amount of fat) [8]: increased
- fat droplet (particle) size [8]: increased
- Kd [4]: 500 nM
- EC50 [14]: 700 nM

SMILES: CC(C)c1c(CN(C)C(C)Cc2ccccc2)n(C)n(-c2ccccc2)c1=O (stereo not shown) [compound 14]
- EC50 [15]: 9200 nM
- Kd [16]: 6600 nM

SMILES: CC1=C2[C@H](/C=C(\C)C(=O)O)CC[C@@H](C)[C@H]2CC1 [compound 9, Valerenic acid]
- RXRβ fold activation [1]: 69 fold act.
- EC50 ([1]; reporter gene assay, read-out: RXRβ EC50): 5200 nM
- RXRγ fold activation [11]: 4 fold act.
- EC50 ([11]; read-out: RXRγ EC50): 43000 nM
- RXRα fold activation [17]: 9 fold act.
- EC50 ([17]; read-out: RXRα EC50): 27000 nM
- RXRα activation ([2]; 10 µM): weak RXRα activation

SMILES: CCN(CCCc1ccccc1)CCCc1ccccc1 [compound 3, alverine]
- effects on HNF4 activity [9]: no effects
- EC50 [10]: 3500 to 6800 nM

SMILES: O=C(O)c1cc(-c2ccccc2)ccc1O [compound 4]
- expression of HNF4 target gene FBP1 [18]: diminished expression

SMILES: CC(C)NCC(O)COc1cccc2ccccc12 (stereo not shown) [compound 18, propranolol]
- TLX-regulated SIRT1 and PTEN/TET3 expression ([13]; qRT-PCR): modulated

SMILES: O=C(O)[C@@H]1C[C@H]1c1nc(-c2ccccc2)c(-c2cc(C(F)(F)F)cc(C(F)(F)F)c2)o1 [compound 7]
- EC50 [1, 20]: 1.4 nM
- EC50 [11, 21]: 4 nM
- Oil red O positive area (amount of fat) [8]: affected neither
- fat droplet (particle) size [8]: affected neither
- EC50 ([17]; read-out: RXRα cellular activity/potency): 5 nM

SMILES: Cn1c(=O)[nH]c2nc[nH]c2c1=O [1-methylxantine]
- IC50 [3, 19]: 9000 nM
